16 compounds from US12714711B2, “Salts of neuroceuticals and uses thereof” (priority 2020, dated 2026) can be followed below.

For one data set, the system named is mice. The experiment in a line: von Frey test, paw withdrawal threshold. It counts as in vivo, C57BL/6J male mice. Particulars: for paw withdrawal threshold compared to vehicle control group / AUC values of von Frey pain threshold compared to vehicle control group / AUC of von Frey pain threshold relative to gabapentin group: mice, single oral dose; for paw withdrawal threshold compared to vehicle control group: gabapentin 20 mg/kg equivalent (salts 192, 106.02, 77.34 mg/kg), 15-180 min; for paw withdrawal threshold compared to vehicle control group / AUC values of von Frey pain threshold compared to vehicle control group: enriched TA 200 mg/kg; for AUC values of von Frey pain threshold compared to vehicle control group: gabapentin 20 mg/kg equivalent; for Pain threshold to time AUC after 120 min: von Frey test, acute oral, 20 mg/kg; for AUC of von Frey pain threshold relative to gabapentin group: same amount of gabapentin (20 mg/kg). On the procedure: The objective of this experiment was to assess the analgesic effects of gabapentin:enriched tannic acid salts in mice. The testing compounds were administrated to mice by oral gavage before von Frey test (a typical assay for pain sensation).
Mice used in this study were randomly assigned into six groups: • Group 1: Vehicle control • Group 2: Enriched TA (200 mg/kg) • Group 3: GBP (20 mg/kg) • Group 4: GBP:enriched TA 1:1 salt (192 mg/kg) • Group 5: GBP:enriched TA 2:1 salt (106.02 mg/kg) • Group 6: GBP:enriched TA 3:1 salt (77.34 mg/kg)
Each mouse in Groups 1-6 received a single, oral dose of 65% PEG400 in ddH2O, enriched tannic acid at 200 mg/kg, gabapentin at 20 mg/kg, gabapentin:enriched tannic acid 1:1 salt (192 mg/kg), gabapentin:enriched tannic acid 2:1 salt (106.02 mg/kg) and gabapentin:enriched tannic acid 3:1 salt (77.34 mg/kg). The amount of gabapentin administered to the mice in Groups 3 to 6 was the same.
Mice were habituated in individual transparent acrylic box on a wire-mesh floor for 30 min before testing. An electronic von Frey apparatus (Bioseb-EVF4S) was used to measure the paw withdrawal thresholds (g) of each mouse before drug administration (baseline) and at 15, 30, 60, 120 and 180 mins after drug administration.

A short description of data set [1]: Carr Index (USP 1174), flowability. It counts as physicochemical.
Data set [2] is described as follows: Water solubility at 25° C. Particulars: for water solubility: 25° C.; for solubility: water, 25 °C.
In another data set the test system is MK-801 treated mice. The experiment in a line: Open field test, MK-801 induced hyper-locomotion.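 For all read-outs here: adult male C57BL/6J mice, locomotion counted as total photobeam breaks over 60 minutes in an open field photobeam activity system.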 Particulars: for Open-field test effect (formula [formula] not readable) / Open-field test, anti-hyperactivity effect (formula [formula] not readable): acute oral; for locomotor activity in MK-801 treated mice: MK-801 0.2 mg/kg i.p.; for Open-field test, anti-hyperactivity effect (formula [formula] not readable): mice.

A further data set in a line: in vivo. As to conditions: rat, po. On the procedure: All animals used in this study were adult rats (at least 2.5 months of age).
Male Sprague-Dawley rats having a bodyweight between 250-300 g were randomly assigned to two groups. […] The chemicals were suspended in sesame oil and administrated by single oral gavage at 2 ml/kg. All rats were fasted overnight with free access to water before oral administration of the testing compositions. On the day of dosing, the blood samples were collected at 0 min (prior to dosing), and 0.25, 0.5, 1, 2, 4, 6, 8, and 24 hr post-dosing.
Blood samples were collected from rat jugular veins and transferred into tubes coated with sodium heparin. To obtain plasma, the blood samples were centrifuged at 2,500×g for 15 min at 4° C. and the supernatants were collected and kept frozen in a freezer at −80° C., until they were analyzed.
The plasma concentration of donepezil was determined by LC/MS. The chromatographic separation was carried out on a 5 μm EVO C8 100 Å LC column (100×4.6 mm, Kinetex®). The mobile phase was 0.1% formic acid in water and acetonitrile:methanol=8:2 set as gradient. Flow rate used was 0.3 mL/min. Column temperature was maintained at 40° C. and the injection volume was 30 μL.
The pharmacokinetic parameters were calculated using non-compartmental analysis (NCA) with WinNonlin to assess the systemic exposure of donepezil in rats.

The conditions of data set [3]: mouse, in vivo, ip, 10 mg/kg. On the procedure: The testing compounds were administered to mice either through intraperitoneal (i.p.) injection or oral gavage before analyzing blood glucose levels.
For the acute study, two cohorts of mice were used.
For repeated-dose study, mice were randomly assigned into five groups as listed below. • Group 1: Vehicle control • Group 2: Clz (3 mg/kg) • Group 3: Clz:NA 1:1 salt (4.13 mg/kg) • Group 4: Clz (10 mg/kg) • Group 5: Clz:NA 1:1 salt (13.77 mg/kg)
The night before blood glucose levels were measured, the mice were fasted. Blood glucose levels were measured with a portable glucose meter (Contour® Plus, Bayer AG, Leverkusen, Germany) After waiting for 60 min, the treatments indicated above were administered. FIG. 75 illustrates the experimental design of this study.
Two cohorts of mice were used in this study. In cohort 1, mice were randomly assigned into the five groups listed below: • Group 1: Vehicle control • Group 2: NA (3.94 mg/kg) • Group 3: Olz (10 mg/kg) • Group 4: Olz (10 mg/kg)+NA (3.94 mg/kg) • Group 5: Olz:NA 1:1 salt (13.94 mg/kg)
Dosing occurred 60 min prior to measuring blood glucose levels.
In cohort 2, mice were randomly assigned into the five groups listed below: • Group 1: Vehicle control • Group 2: Olz (5 mg/kg) • Group 3: Olz:NA 1:1 salt (6.97 mg/kg) • Group 4: Olz (10 mg/kg) • Group 5: Olz:NA 1:1 salt (13.94 mg/kg)
The night before the glucose tolerance test, the mice fasted. Blood glucose levels were measured in whole blood that was collected from the mouse's tail vein. Glucose levels were measured with a portable glucose meter (Contour® Plus, Bayer AG, Leverkusen, Germany), with the measurement occurring 60 min after the mice were dosed with the treatments indicated above Immediately following the glucose measurement, all mice were subjected to a glucose tolerance test, which involved an intraperitoneal challenge injection of 1 g/kg of glucose, followed by measuring blood glucose levels at 0, 30, 60 and 120 minutes.

Setting [4] is: paliperidone 0.06 mg/kg (nicotinic acid salt study).
[5] abbreviates: oral paliperidone 0.06 mg/kg or nicotinic acid 1:2 salt 0.094 mg/kg.
The mark [6] stands for this setting: MK801 model, dosage of clozapine 1 mg/kg.
The mark [7] stands for this setting: MK801 model, dosage of clozapine 2 mg/kg.
Where [8] appears, read: risperidone 10 mg/kg as printed in Table 29.
The mark [9] stands for this setting: oral risperidone 0.06 mg/kg or nicotinic acid salt 0.078 mg/kg.
Where [10] appears, read: paliperidone 0.06 mg/kg (benzoic acid salt study).
Where [11] appears, read: oral paliperidone 0.06 mg/kg or benzoic acid salt 0.076 mg/kg.

≈ marks a conversion by molar mass, not a printed value. Where only a bound is given, the exact number is not on record here.

Protocol for MK-801 treated mice: All mice were tested with open field task.
In this study, the mice were placed in a Plexiglas cage (37.5 cm×21.5 cm×18 cm) under 50-65 lux light intensity. Their spontaneous locomotor activities were measured for 60 minutes using the Photobeam Activity System (PAS)-open field (San Diego Instruments, San Diego, Calif., USA). The total number of photo beam breaks of each mouse was measured as an index of locomotor activity.
The schizophrenia-like behavior, MK801-induced hyperactivity, were tested by open field task.
All mice were tested in an open field task.
The schizophrenia-like behavior, NMDA-hypofunction-induced hyperactivity, were tested by open field task.
The amount of paliperidone administered to Groups 3 and 4 was equal. The schizophrenia-like behavior, MK801-induced hyperactivity, were tested by open field task.
The amount of paliperidone administered to Groups 3 and 4 was equal. The schizophrenia-like behavior, NMDA-hypofunction-induced hyperactivity, were tested by open field task.

As for “gabapentin:enriched tannic acid 2:1 salt”, in the data set with mice, the “paw withdrawal threshold compared to vehicle control group” value is listed as “significantly higher at 30 min”.
As to `Cc1nc2n(c(=O)c1CCN1CCC(c3noc4cc(F)ccc34)CC1)CCCC2O.O=C(O)c1cccnc1.O=C(O)c1cccnc1` (stereo not shown) [paliperidone:nicotinic acid 1:2 salt], in data set [1], the “Carr Index” value is 29%. In data set [2], this compound returned a water solubility of 137.3 mg/mL. For the same compound, in the data set on MK-801 treated mice (setting [4]), the “Open-field test effect (formula [formula] not readable)” value came out at 89.7%. Also, the “locomotor activity in MK-801 treated mice” value (“locomotor activity” for short) in the data set with MK-801 treated mice (setting [5]) was “significant decreases in locomotion activity, compared with paliperidone group”.
For `O=C(O)/C=C/C(=O)O.OCCOCCN1CCN(C2=Nc3ccccc3Sc3ccccc32)CC1` [quetiapine:fumaric acid 1:1 salt, reference compound], the “Carr Index” value in data set [1] is 33%.
Consider `OCCOCCN1CCN(C2=Nc3ccccc3Sc3ccccc32)CC1` [quetiapine, reference compound], for which, in the data set on MK-801 treated mice (quetiapine 10 mg/kg), the “Open-field test effect (formula [formula] not readable)” value is on record as 8.7%. The “locomotor activity” value in the data set on MK-801 treated mice (oral quetiapine 10 mg/kg or nicotinic acid salt […]) is listed as “alleviates MK-801 induced hyperactivity”.
As for `Cc1cc2c(s1)Nc1ccccc1N=C2N1CCN(C)CC1` [olanzapine, reference compound], in the data set with MK-801 treated mice (MK801-treated mice, dosage of olanzapine 0.1 mg/kg), the “Recovery rate (%)” value turned out to be 36.8%. In addition, in the data set on MK-801 treated mice (olanzapine 0.5 mg/kg), the “Open-field test effect (formula [formula] not readable)” value was 85.8% and the “Open-field test, anti-hyperactivity effect (formula [formula] not readable)” value is on record as 30.53%.
In turn, `CN1CCN(C2=Nc3cc(Cl)ccc3Nc3ccccc32)CC1` [clozapine, reference compound] showed a solubility in data set [2] of 0.18 mg/mL (≈ 551 µM). For the same compound, in the data set with MK-801 treated mice (MK801-treated mice, dosage of clozapine 1 mg/kg (benzoic acid salt study)), the “Recovery rate (%)” value is 65.1%. Moreover, in the data set with MK-801 treated mice (setting [6]), the “Recovery rate (%)” value amounted to 57%. In the data set on MK-801 treated mice (setting [7]), the “Recovery rate (%)” value is on record as 79%. The “Open-field test, anti-hyperactivity effect (formula [formula] not readable)” value with MK-801 treated mice (clozapine 1 mg/kg) stood at 18.77%. Also, in the data set “in vivo” (male, Sprague-Dawley, 60 mg/kg), the AUC worked out at 1320 ng·h/mL, the “AUC Increased (%)” value turned out to be 100%, the Tmax is 1 h and the half-life is 5.6 ± 1.7 h.
Regarding `NCC1(CC(=O)O)CCCCC1` [gabapentin, reference compound], in the data set on mice, the “paw withdrawal threshold compared to vehicle control group” value was “no difference from control group at any time point examined”, the “AUC values of von Frey pain threshold compared to vehicle control group” value (“AUC values … compared to vehicle control group” for short) is listed as “little to no effect” and the “Pain threshold to time AUC after 120 min” value amounted to 1.28.
As for `Cc1nc2n(c(=O)c1CCN1CCC(c3noc4cc(F)ccc34)CC1)CCCC2.O=C(O)c1cccnc1` [risperidone:nicotinic acid 1:1 salt, resperidone:nicotinic acid 1:1 salt], the water solubility in data set [2] stood at 2170.77 mg/mL. Also, the “Open-field test effect (formula [formula] not readable)” value with MK-801 treated mice (setting [8]) is given as 80.1%. Moreover, the “locomotor activity” value with MK-801 treated mice (setting [9]) is “higher potency to MK-801-induced hyperactivity”.
Take “gabapentin:enriched tannic acid 1:1 salt”: in the data set on mice, the “paw withdrawal threshold compared to vehicle control group” value is “significantly higher at 60 and 120 min”; the “AUC values … compared to vehicle control group” value is reported as “significantly higher”; the “AUC of von Frey pain threshold relative to gabapentin group” value is “about twice as high as in gabapentin group”.
As to “olanzapine:enriched tannic acid 2:1 salt”, the “Open-field test, anti-hyperactivity effect (formula [formula] not readable)” value with MK-801 treated mice (olanzapine 0.5 mg/kg) was 112.82%.
Regarding `CN1CCN(C2=Nc3cc(Cl)ccc3Nc3ccccc32)CC1.O=C(O)c1cccnc1` [clozapine:nicotinic acid 1:1 salt], in data set [3], the “reduction of clozapine-induced hyperglycemia” value came to 46.8%. In the data set with MK-801 treated mice (setting [6]), the “Recovery rate (%)” value is reported as 86%. In addition, the “Recovery rate (%)” value in the data set with MK-801 treated mice (setting [7]) is listed as 100%. Besides, in the data set “in vivo”, the T1/2 came to 3.2 ± 1.4 h and the Tmax turned out to be 0.8 h. In addition, the “AUC Increased (%)” value in “in vivo” (60 mg/kg) was 161.8%.
As to `Cc1nc2n(c(=O)c1CCN1CCC(c3noc4cc(F)ccc34)CC1)CCCC2O` (stereo not shown) [paliperidone, reference compound], in data set [1], the “Carr Index” value is 29%. In data set [2], this compound gave a solubility of 0.29 mg/mL (≈ 680 µM). Moreover, the “Open-field test effect (formula [formula] not readable)” value in the data set on MK-801 treated mice (setting [10]) and in the data set on MK-801 treated mice (setting [4]) was 50.3% in each case. In addition, the “locomotor activity” value in the data set on MK-801 treated mice (setting [11]) and with MK-801 treated mice (setting [5]) was “alleviates MK-801 induced hyperactivity” each time.
For `Cc1nc2n(c(=O)c1CCN1CCC(c3noc4cc(F)ccc34)CC1)CCCC2O.O=C(O)c1ccccc1` (stereo not shown) [paliperidone:benzoic acid 1:1 salt, Paliperidone:Benzoic Acid 1:1 Salt], the “Carr Index” value in data set [1] is reported as 13%. This compound also returned a water solubility in data set [2] of 10.4 mg/mL. In addition, in the data set on MK-801 treated mice (setting [10]), the “Open-field test effect (formula [formula] not readable)” value amounted to 85.0%. Also, the “locomotor activity” value in the data set with MK-801 treated mice (setting [11]) is on record as “significant decrease in locomotion activity, compared with paliperidone group”.
Regarding “gabapentin:enriched tannic acid 3:1 salt”, in the data set with mice, the “paw withdrawal threshold compared to vehicle control group” value was “significantly higher at 30, 60 and 120 min after administration”; the “AUC values … compared to vehicle control group” value is on record as “significantly higher”; the “AUC of von Frey pain threshold relative to gabapentin group” value is listed as “about twice as high as in gabapentin group”; the “Pain threshold to time AUC after 120 min” value came to 2.80.
For the compound olanzapine:pantothenic acid 5:1 salt, the “Open-field test effect (formula [formula] not readable)” value in the data set with MK-801 treated mice (olanzapine 0.5 mg/kg) is recorded as 101.0%. Moreover, in the data set with MK-801 treated mice (oral olanzapine 0.5 mg/kg or 5:1 salt 0.547 mg/kg), the “locomotor activity” value is reported as “higher potency to MK-801-induced hyperactivity”.
For the compound `Cc1nc2n(c(=O)c1CCN1CCC(c3noc4cc(F)ccc34)CC1)CCCC2` [risperidone, reference compound], the solubility in data set [2] was < 0.005 mg/mL. Further, in the data set on MK-801 treated mice (setting [8]), the “Open-field test effect (formula [formula] not readable)” value amounted to 48.7%. In the data set on MK-801 treated mice (setting [9]), the “locomotor activity” value is “alleviates MK-801 induced hyperactivity”.
